Source: ChEMBL document CHEMBL1138956, “Synthesis and in vitro anti-tumor activity of N-{1-[(3-thioxo-5,6-dihydroimidazo[2,1-c][1,2,4]thiadiazol-7-ylthio)thiocarbonyl]-2-imidazolidene}arylsulfonamides” (2006)
The source made the active and inactive calls. No cut-off for these calls is given here.

How the values were obtained:
SF-539 = assay: Antitumor activity against SF539 cell line; format: functional, cell-based; details: Homo sapiens
UO-31 = assay: Antitumor activity against UO31 cell line; format: functional, cell-based; details: Homo sapiens
KYSE-510 = assay: Antitumor activity against KYSE510 cell line after 96 hrs using crystal violet; format: functional; details: Homo sapiens, KYSE-510, 96 h
CCRF-CEM = assay: Antitumor activity against CCRF-CEM cell line; format: functional, cell-based; details: Homo sapiens
RPMI-8226 = assay: Antitumor activity against RPMI8226 cell line; format: functional, cell-based; details: Homo sapiens
HOP-92 = assay: Antitumor activity against HOP92 cell line; format: functional, cell-based; details: Homo sapiens
RXF 393 = assay: Antitumor activity against RXF393 cell line; format: functional, cell-based; details: Homo sapiens
SR = assay: Antitumor activity against SR cell line; format: functional, cell-based; details: Homo sapiens
HL-60 = assay: Antitumor activity against HL60(TB) cell line; format: functional, cell-based; details: Homo sapiens
SK-OV-3 = assay: Antitumor activity against SKOV3 cell line; format: functional, cell-based; details: Homo sapiens
LOX IMVI = assay: Antitumor activity against LOXIMVI cell line; format: functional, cell-based; details: Homo sapiens
5637 = assay: Antitumor activity against 5637 cell line after 96 hrs using crystal violet; format: functional; details: Homo sapiens, 5637, 96 h
ACHN = assay: Antitumor activity against ACHN cell line; format: functional, cell-based; details: Homo sapiens

Structure (SMILES) | GI50 (KYSE-510) | also measured
O=S(=O)(NC1=NCCN1C(=S)SN1CCn2c1nsc2=S)c1ccc(Cl)cc1 | ≥ 20 µM | Activity (SF-539): Active; Activity (UO-31): Active
O=S(=O)(NC1=NCCN1C(=S)SN1CCn2c1nsc2=S)c1cccc2ccccc12 | ≥ 20 µM | Activity (CCRF-CEM): Active; Activity (RPMI-8226): Active
O=S(=O)(NC1=NCCN1C(=S)SN1CCn2c1nsc2=S)c1ccc(Cl)c(Cl)c1Cl | ≥ 20 µM | –
O=S(=O)(NC1=NCCN1C(=S)SN1CCn2c1nsc2=S)c1ccc(C(F)(F)F)cc1 | ≥ 20 µM | –
CC(=O)Nc1ccc(S(=O)(=O)NC2=NCCN2C(=S)SN2CCn3c2nsc3=S)cc1 | ≥ 20 µM | –
O=S(=O)(NC1=NCCN1C(=S)SN1CCn2c1nsc2=S)c1ccc2ccccc2c1 | ≥ 20 µM | –
O=S(=O)(NC1=NCCN1C(=S)SN1CCn2c1nsc2=S)c1ccc(Br)cc1 | ≥ 20 µM | Activity (HOP-92): Active; Activity (RPMI-8226): Active
COc1ccc(S(=O)(=O)NC2=NCCN2C(=S)SN2CCn3c2nsc3=S)cc1OC | ≥ 20 µM | Activity (RXF 393): Active
O=S(=O)(NC1=NCCN1C(=S)SN1CCn2c1nsc2=S)c1ccc(OC(F)(F)F)cc1 | ≥ 20 µM | Activity (SF-539): Active; Activity (SR): Active
O=S(=O)(NC1=NCCN1C(=S)SN1CCn2c1nsc2=S)c1ccccc1Cl | ≥ 20 µM | Activity (HL-60): Active; Activity (CCRF-CEM): Active
O=S(=O)(NC1=NCCN1C(=S)SN1CCn2c1nsc2=S)c1ccc(-c2ccccc2)cc1 | ≥ 20 µM | –
Cc1cc(C)c(S(=O)(=O)NC2=NCCN2C(=S)SN2CCn3c2nsc3=S)c(C)c1 | ≥ 20 µM | –
O=S(=O)(NC1=NCCN1C(=S)SN1CCn2c1nsc2=S)c1ccc(Cl)cc1Cl | ≥ 20 µM | –
O=S(=O)(NC1=NCCN1C(=S)SN1CCn2c1nsc2=S)c1ccc(Oc2ccccc2)cc1 | ≥ 20 µM | Activity (SR): Active; Activity (HL-60): Active
O=S(=O)(NC1=NCCN1C(=S)SN1CCn2c1nsc2=S)c1ccccc1 | ≥ 20 µM | –
O=S(=O)(NC1=NCCN1C(=S)SN1CCn2c1nsc2=S)c1cc(Cl)cc(Cl)c1 | ≥ 20 µM | –
COc1ccc(S(=O)(=O)NC2=NCCN2C(=S)SN2CCn3c2nsc3=S)cc1 | ≥ 20 µM | Activity (RXF 393): Active; Activity (UO-31): Active
O=S(=O)(NC1=NCCN1C(=S)SN1CCn2c1nsc2=S)c1cccc(OC(F)(F)F)c1 | ≥ 20 µM | Activity (CCRF-CEM): Active; Activity (RPMI-8226): Active
COc1cc(C)ccc1S(=O)(=O)NC1=NCCN1C(=S)SN1CCn2c1nsc2=S | ≥ 20 µM | –
O=S(=O)(NC1=NCCN1C(=S)SN1CCn2c1nsc2=S)c1cccc(Cl)c1 | ≥ 20 µM | Activity (RXF 393): Active; Activity (CCRF-CEM): Active
O=S(=O)(NC1=NCCN1C(=S)SN1CCn2c1nsc2=S)c1ccc(F)c(Cl)c1 | ≥ 20 µM | –
Cc1ccc(S(=O)(=O)NC2=NCCN2C(=S)SN2CCn3c2nsc3=S)cc1 | ≥ 20 µM | Activity (SK-OV-3): Active; Activity (LOX IMVI): Active
COc1ccc(OC)c(S(=O)(=O)NC2=NCCN2C(=S)SN2CCn3c2nsc3=S)c1 | ≥ 20 µM | –
O=S(=O)(NC1=NCCN1C(=S)SN1CCn2c1nsc2=S)c1ccc(Cl)c(Cl)c1 | ≥ 20 µM | –
O=[N+]([O-])c1ccc(S(=O)(=O)NC2=NCCN2C(=S)SN2CCn3c2nsc3=S)cc1 | ≥ 20 µM | GI50 5637: 3.67 µM
COc1cccc(S(=O)(=O)NC2=NCCN2C(=S)SN2CCn3c2nsc3=S)c1 | ≥ 20 µM | Activity (ACHN): Active; Activity (LOX IMVI): Active
